{"source": "patent US11963962B2", "about": "“Platelet count-agnostic methods of treating myelofibrosis” (Sierra Oncology, Inc., priority 2018, dated 2024)", "format_in_all_cases": "in vivo, human", "key": {"myelofibrosis [1]": {"tested_on": "myelofibrosis", "assay": "SIMPLIFY-1 Phase 3 trial: safety (anemia, platelet counts, hemoglobin)", "procedure": "In the SIMPLIFY-1 trial (NCT01969838), the efficacy and safety of MMB versus ruxolitinib (RUX) was studied in patients with myelofibrosis who were naïve to treatment with a JAK inhibitor and a platelet count of ≥50×10^9/L. Patients (N=432) with high risk or intermediate-2 risk or symptomatic intermediate-1 risk myelofibrosis received 24 weeks of treatment with 200 mg MMB once daily or 20 mg RUX twice a day (or per label), after which all patients could receive open-label momelotinib. […] The primary endpoint was a reduction by at least 35% in the spleen volume at 24 weeks compared with baseline.\nThe mean platelet count for RUX patients is demonstrably lower than the mean platelet count for MMB patients.\nThe MMB subjects were thus at lower risk of developing thrombocytopenia (e.g., Grade 3 or 4 thrombocytopenia), or of having to undergo undesirable dose reduction because they were able to largely maintain their platelet counts during therapy."}, "myelofibrosis [2]": {"tested_on": "myelofibrosis", "assay": "SIMPLIFY-2 Phase 3 trial: total symptom score (TSS) response", "settings": "for TSS Responders / TSS proportion (Wilson 95% CI) / TSS Absolute risk difference (Newcombe 95% CI): SIMPLIFY 2; for TSS Absolute risk difference (Newcombe 95% CI): MMB vs Control", "excerpt": "(§1) In the SIMPLIFY-2 trial (NCT02101268), the efficacy and safety of MMB was studied in anemic or thrombocytopenic subjects with myelofibrosis who were previously treated with ruxolitinib (RUX). […] Specifically, anemic or thrombocytopenic myelofibrosis patients who had and were previously treated with (RUX) (for at least 28 days) were studied over 24 weeks for response to MMB versus best available treatment (BAT), primarily RUX (89% of patients) but alternatively no treatment or other standard interventions, after which period all patients could receive extended MMB treatment. Previously treated RUX patients who either required red blood cell transfusions or RUX dose reduction with grade 3 thrombocytopenia, anemia, and/or bleeding at grade 3 or worse, with palpable spleen of at least 5 cm and without grade 2 or greater peripheral neuropathy were included in the trial. There was no lower limit for the required baseline platelet count. The primary endpoint was a reduction by at least 35% in the spleen volume at 24 weeks compared with baseline.\n(§2) FIG. 8A: SIMPLIFY-1 study of MMB in a first line population previously untreated with JAKi. For SIMPLIFY-1, the goal was non-inferiority over ruxolitinib (RUX) (MMB: N=215 subjects, and RUX: N=217 subjects). FIG. 8B: SIMPLIFY-2 study of second line population of anemic or thrombocytopenic subjects previously treated with RUX (red blood cell (RBC) transfusions on RUX=64%. RUX dose adjustment for: thrombocytopenia=21%; anemia/hematoma=35%). For SIMPLIFY-2, the goal was superiority over best available treatment (BAT) (MMB: N=104 subjects, and BAT: N=52 subjects). In both SIMPLIFY-1 and SIMPLIFY: Primary endpoint: >=35% reduction in spleen volume at 24 weeks. Secondary endpoints: Total symptom score (TSS) response at 24 weeks. Effects on RBC transfusion requirements.\n(§3) The SIMPLIFY 2 clinical trial data was reanalyzed for subgroups of subjects having particular baseline platelet counts in the MMB versus BAT arms of the study.\n(§4) Patient data was analyzed according to the following baseline platelet count (PLT) subgroups and in particular according to a threshold PLT of 150×10^9/L: 1) PLT<50×10^9/L; 2) 50×10^9/L≤PLT<100×10^9/L; 3) 100×10^9/L≤PLT<150×10^9/L. The reanalyzed data is presented in Table 14 (SIMPLIFY 2)."}, "myelofibrosis [3]": {"tested_on": "myelofibrosis", "assay": "SIMPLIFY-2 Phase 3 trial: splenic response rate (SRR)", "settings": "for SRR Absolute risk difference (Newcombe 95% CI): MMB vs Control", "excerpt": "as §1, §2, §3, §4"}, "myelofibrosis [4]": {"tested_on": "myelofibrosis", "assay": "Translational biology Phase 2 study (GS-US-352-1672) in transfusion dependent MF patients", "excerpt": "In a translational biology study, we determined the impact of momelotinib on plasma hepcidin, markers of iron storage and availability, erythropoiesis, and inflammation to explore mechanisms of the favorable effects of momelotinib on MF-associated anemia and transfusion independence. See Oh et al. “Hepcidin Suppression by Momelotinib Is Associated With Increased Iron Availability and Erythropoiesis in Transfusion-Dependent Myelofibrosis Patients”, Abstract #4282: Presented at ASH 60th Annual Meeting & Exposition: Dec. 1-4, 2018, San Diego, Calif., the disclosure of which is herein incorporated by reference.\nPopulation: Primary MF (PMF), post-polycythemia vera MF (post-PV MF), or post-essential thrombocythemia MF (post-ET MF). Requiring MF therapy (in the opinion of the investigator). High risk or intermediate-2 (DIPSS). Transfusion Dependent (TD) at baseline. [defined as ≥4 U red blood cell (RBC) transfusion in the 8 weeks prior to the first dose of MMB]. Goal: Exploratory translational biology study (MMB: N=41 subjects). Objectives: Primary objective: determine the transfusion independence response rate (TI; ≥12 week & ≥8 week) for TD subjects with MF treated with momelotinib. Secondary objectives: Evaluate baseline levels and changes in markers of iron metabolism; Assess inhibition of JAK1/2; Evaluate momelotinib pharmacokinetics in transfusion-dependent subjects with MF; and Evaluate changes in circulating cytokine and inflammatory markers."}}, "note": "Several values for one entry are separate records, joined by “and”; a condition that tells them apart may be missing. Identical values can stand only once.", "data": [{"compound": "Cl.N#CCNC(=O)c1ccc(-c2ccnc(Nc3ccc(N4CCOCC4)cc3)n2)cc1", "note": "[MMB, N-(cyanomethyl)-4-(2-(4-morpholinophenylamino)pyrimidin-4-yl)benzamide]", "values": [{"measurement": "anemia rate", "setting": "myelofibrosis [1]; SIMPLIFY 1", "result": 14, "unit": "%"}, {"measurement": "≥Grade 3 anemia rate", "setting": "myelofibrosis [1]; SIMPLIFY 1", "result": 6, "unit": "%"}, {"measurement": "platelet counts during treatment", "setting": "myelofibrosis [1]; SIMPLIFY 1, 24 week double blind phase, FIGS. 31-33", "result": "able to maintain platelet levels"}, {"measurement": "hemoglobin change", "setting": "myelofibrosis [1]; SIMPLIFY 1, after initiating MMB, FIG. 10", "result": "rapid and sustained hemoglobin improvement"}, {"measurement": "TSS symptom response", "setting": "myelofibrosis [2]; SIMPLIFY 2, second line patients", "result": 26.2, "unit": "%"}, {"measurement": "TSS Responders", "setting": "myelofibrosis [2]; 50 ≤ PLT < 100 ×10^9/L", "result": 9}, {"measurement": "TSS proportion (Wilson 95% CI)", "setting": "myelofibrosis [2]; 50 ≤ PLT < 100 ×10^9/L", "result": 0.27}, {"measurement": "TSS Absolute risk difference (Newcombe 95% CI)", "setting": "myelofibrosis [2]; 50 ≤ PLT < 100 ×10^9/L", "result": 0.27}, {"measurement": "TSS Responders", "setting": "myelofibrosis [2]; 100 ≤ PLT < 150 ×10^9/L", "result": 6}, {"measurement": "TSS proportion (Wilson 95% CI)", "setting": "myelofibrosis [2]; 100 ≤ PLT < 150 ×10^9/L", "result": 0.25}, {"measurement": "TSS Absolute risk difference (Newcombe 95% CI)", "setting": "myelofibrosis [2]; 100 ≤ PLT < 150 ×10^9/L", "result": 0.25}, {"measurement": "TSS Responders", "setting": "myelofibrosis [2]; ITT", "result": 27}, {"measurement": "TSS proportion (Wilson 95% CI)", "setting": "myelofibrosis [2]; ITT", "result": 0.26}, {"measurement": "TSS Absolute risk difference (Newcombe 95% CI)", "setting": "myelofibrosis [2]; ITT", "result": 0.20}, {"measurement": "TSS Responders", "setting": "myelofibrosis [2]; PLT < 50 ×10^9/L", "result": 1}, {"measurement": "TSS proportion (Wilson 95% CI)", "setting": "myelofibrosis [2]; PLT < 50 ×10^9/L", "result": 0.11}, {"measurement": "TSS Absolute risk difference (Newcombe 95% CI)", "setting": "myelofibrosis [2]; PLT < 50 ×10^9/L", "result": "−0.03"}, {"measurement": "SRR Responders", "setting": "myelofibrosis [3]; 50 ≤ PLT < 100 ×10^9/L", "result": 1}, {"measurement": "SRR proportion (Wilson 95% CI)", "setting": "myelofibrosis [3]; 50 ≤ PLT < 100 ×10^9/L", "result": 0.03}, {"measurement": "SRR Absolute risk difference (Newcombe 95% CI)", "setting": "myelofibrosis [3]; 50 ≤ PLT < 100 ×10^9/L", "result": "−0.02"}, {"measurement": "SRR Responders", "setting": "myelofibrosis [3]; 100 ≤ PLT < 150 ×10^9/L", "result": 3}, {"measurement": "SRR proportion (Wilson 95% CI)", "setting": "myelofibrosis [3]; 100 ≤ PLT < 150 ×10^9/L", "result": 0.13}, {"measurement": "SRR Absolute risk difference (Newcombe 95% CI)", "setting": "myelofibrosis [3]; 100 ≤ PLT < 150 ×10^9/L", "result": 0.03}, {"measurement": "SRR Responders", "setting": "myelofibrosis [3]; ITT", "result": 7}, {"measurement": "SRR proportion (Wilson 95% CI)", "setting": "myelofibrosis [3]; ITT", "result": 0.07}, {"measurement": "SRR Absolute risk difference (Newcombe 95% CI)", "setting": "myelofibrosis [3]; ITT", "result": 0.01}, {"measurement": "SRR Responders", "setting": "myelofibrosis [3]; PLT < 50 ×10^9/L", "result": 0}, {"measurement": "SRR proportion (Wilson 95% CI)", "setting": "myelofibrosis [3]; PLT < 50 ×10^9/L", "result": 0.00}, {"measurement": "≥8 week transfusion independence rate", "setting": "myelofibrosis [4]; Phase 2 GS-US-352-1672, TD subjects, N=41", "result": 39.0, "unit": "%"}, {"measurement": "≥12 week transfusion independence rate", "setting": "myelofibrosis [4]; Phase 2 GS-US-352-1672, TD subjects, N=41, listed as momelotinib", "result": "34% and 34.1%"}, {"measurement": "time to increased serum iron and transferrin", "setting": "myelofibrosis [4]; after momelotinib treatment initiation, FIG. 13", "result": "≤ 2", "unit": "weeks"}, {"measurement": "TI-NR patients with decreased transfusion burden (≥50%)", "setting": "myelofibrosis [4]; any 8 week period, units of RBC, ≥2 unit decrease", "result": 77.8, "unit": "%"}, {"measurement": "effect on hepcidin", "setting": "myelofibrosis [4]; post-MMB administration, FIG. 11", "result": "consistently decreased hepcidin"}]}]}
